From ChEMBL document CHEMBL4507262, “Data for DCP probe A-1596586” (2021)

Columns and labels:
[1] = target: Histamine H2 receptor (Homo sapiens) (UniProt P25021); assay: H2 (h) Eurofins-Cerep binding assay; design: ligand concentration 0.075 nM; conditions: filed as antagonist, Compound concentration 10.0 uM
[2] = target: Glutamate NMDA receptor (Rattus norvegicus) (UniProt P35439+Q00959+Q00960+Q00961+Q62645+Q8VHN2+Q9R1M7); assay: PCP Eurofins-Cerep binding assay; format: protein-complex assay; design: ligand concentration 10 nM; conditions: filed as antagonist, Compound concentration 10.0 uM
[3] = tested on: Tyrosine-protein kinase ABL1 (Homo sapiens), P00519 [F317L]; conditions: Compound concentration 1000.0 nM
[4] = tested on: Tyrosine-protein kinase ABL1 (Homo sapiens), P00519 [M351T]; conditions: Compound concentration 1000.0 nM
[5] = tested on: Tyrosine-protein kinase ABL1 (Homo sapiens), P00519 [T315I]; conditions: Compound concentration 1000.0 nM
[6] = target: Activin receptor type-1 (Homo sapiens) (UniProt Q04771); conditions: Compound concentration 1000.0 nM
[7] = tested on: ALK tyrosine kinase receptor (Homo sapiens), Q9UM73 [L1196M]; conditions: Compound concentration 1000.0 nM
ALK tyrosine kinase receptor (Homo sapiens), Q9UM73 [L1196M], sequence (Q9UM73 whole entry L1196M, looked up): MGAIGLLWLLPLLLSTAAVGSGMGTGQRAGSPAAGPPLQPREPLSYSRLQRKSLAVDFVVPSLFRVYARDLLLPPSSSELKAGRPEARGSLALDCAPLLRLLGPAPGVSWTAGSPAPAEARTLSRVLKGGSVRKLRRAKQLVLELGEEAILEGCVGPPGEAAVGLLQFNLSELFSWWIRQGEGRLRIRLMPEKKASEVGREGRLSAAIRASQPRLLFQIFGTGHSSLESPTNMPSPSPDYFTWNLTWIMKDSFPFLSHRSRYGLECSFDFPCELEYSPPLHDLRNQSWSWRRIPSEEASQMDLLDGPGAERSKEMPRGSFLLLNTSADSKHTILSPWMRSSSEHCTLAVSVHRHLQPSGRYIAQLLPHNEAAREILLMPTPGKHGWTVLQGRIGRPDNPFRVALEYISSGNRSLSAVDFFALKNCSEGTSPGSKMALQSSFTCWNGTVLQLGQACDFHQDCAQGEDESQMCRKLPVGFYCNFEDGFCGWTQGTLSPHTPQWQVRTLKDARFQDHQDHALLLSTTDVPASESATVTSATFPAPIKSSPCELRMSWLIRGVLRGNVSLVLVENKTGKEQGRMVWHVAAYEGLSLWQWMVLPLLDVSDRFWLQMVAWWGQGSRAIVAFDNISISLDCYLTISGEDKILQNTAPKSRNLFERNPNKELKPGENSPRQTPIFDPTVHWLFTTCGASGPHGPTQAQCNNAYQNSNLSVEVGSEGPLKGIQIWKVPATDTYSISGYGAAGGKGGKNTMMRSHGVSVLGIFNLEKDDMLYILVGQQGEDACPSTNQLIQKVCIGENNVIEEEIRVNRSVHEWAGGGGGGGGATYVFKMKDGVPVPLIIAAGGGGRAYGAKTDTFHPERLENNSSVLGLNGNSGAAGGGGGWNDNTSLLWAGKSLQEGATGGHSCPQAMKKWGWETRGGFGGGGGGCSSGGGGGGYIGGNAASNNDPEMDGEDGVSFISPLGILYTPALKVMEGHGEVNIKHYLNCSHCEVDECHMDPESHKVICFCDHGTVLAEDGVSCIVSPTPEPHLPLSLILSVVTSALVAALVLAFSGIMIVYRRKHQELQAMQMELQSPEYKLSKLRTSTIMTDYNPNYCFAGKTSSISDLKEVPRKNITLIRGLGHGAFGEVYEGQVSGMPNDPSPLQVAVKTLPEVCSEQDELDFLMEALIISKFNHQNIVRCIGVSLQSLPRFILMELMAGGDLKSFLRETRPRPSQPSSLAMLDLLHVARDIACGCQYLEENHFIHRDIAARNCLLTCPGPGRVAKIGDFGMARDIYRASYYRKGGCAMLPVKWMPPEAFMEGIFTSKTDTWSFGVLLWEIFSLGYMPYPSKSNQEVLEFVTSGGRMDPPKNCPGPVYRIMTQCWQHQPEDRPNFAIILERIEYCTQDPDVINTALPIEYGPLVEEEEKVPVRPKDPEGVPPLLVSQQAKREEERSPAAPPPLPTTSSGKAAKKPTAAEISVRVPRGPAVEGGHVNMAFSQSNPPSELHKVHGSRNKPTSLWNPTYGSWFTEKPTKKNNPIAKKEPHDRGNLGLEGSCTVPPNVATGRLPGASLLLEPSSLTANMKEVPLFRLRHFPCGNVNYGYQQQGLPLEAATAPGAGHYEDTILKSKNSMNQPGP

[8] = target: Aurora kinase A (Homo sapiens) (UniProt O14965); conditions: Compound concentration 1000.0 nM
[9] = target: BMP-2-inducible protein kinase (Homo sapiens) (UniProt Q9NSY1); conditions: Compound concentration 1000.0 nM
[10] = target: Calcium/calmodulin-dependent protein kinase type II subunit gamma (Homo sapiens) (UniProt Q13555); conditions: Compound concentration 1000.0 nM
[11] = target: Tyrosine-protein kinase CSK (Homo sapiens) (UniProt P41240); conditions: Compound concentration 1000.0 nM
[12] = target: Casein kinase I isoform epsilon (Homo sapiens) (UniProt P49674); conditions: Compound concentration 1000.0 nM
Casein kinase I isoform epsilon (Homo sapiens), sequence (P49674 whole entry, looked up, canonical isoform): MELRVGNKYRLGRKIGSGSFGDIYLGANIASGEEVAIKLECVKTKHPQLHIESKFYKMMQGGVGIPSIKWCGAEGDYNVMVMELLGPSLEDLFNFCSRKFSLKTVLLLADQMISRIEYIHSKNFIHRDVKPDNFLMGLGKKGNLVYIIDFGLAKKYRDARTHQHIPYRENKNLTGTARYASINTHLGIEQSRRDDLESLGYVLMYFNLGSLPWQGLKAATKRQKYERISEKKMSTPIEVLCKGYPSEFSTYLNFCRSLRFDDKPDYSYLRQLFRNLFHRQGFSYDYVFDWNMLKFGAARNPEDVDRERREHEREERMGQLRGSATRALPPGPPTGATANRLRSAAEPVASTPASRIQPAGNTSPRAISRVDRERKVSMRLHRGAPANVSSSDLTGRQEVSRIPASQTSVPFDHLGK

[13] = target: Dual specificity tyrosine-phosphorylation-regulated kinase 1A (Homo sapiens) (UniProt Q13627); conditions: Compound concentration 1000.0 nM
[14] = target: G protein-coupled receptor kinase 3 (Homo sapiens) (UniProt P35626); conditions: Compound concentration 1000.0 nM
[15] = target: Homeodomain-interacting protein kinase 2 (Homo sapiens) (UniProt Q9H2X6); conditions: Compound concentration 1000.0 nM
[16] = tested on: Mast/stem cell growth factor receptor Kit (Homo sapiens), P10721 [D816H]; conditions: Compound concentration 1000.0 nM
[17] = target: Tyrosine-protein kinase Mer (Homo sapiens) (UniProt Q12866); conditions: Compound concentration 1000.0 nM
[18] = target: Serine/threonine-protein kinase 26 (Homo sapiens) (UniProt Q9P289); conditions: Compound concentration 1000.0 nM
[19] = target: Serine/threonine-protein kinase NIM1 (Homo sapiens) (UniProt Q8IY84); conditions: Compound concentration 1000.0 nM
[20] = target: Serine/threonine-protein kinase PAK 5 (Homo sapiens) (UniProt Q9P286); conditions: Compound concentration 1000.0 nM
[21] = target: Platelet-derived growth factor receptor alpha (Homo sapiens) (UniProt P16234); conditions: Compound concentration 1000.0 nM
[22] = target: Phosphorylase b kinase regulatory subunit alpha, liver isoform (Homo sapiens) (UniProt P46019); conditions: Compound concentration 1000.0 nM
[23] = target: Serine/threonine-protein kinase PknB (Mycobacterium tuberculosis) (UniProt P9WI81); conditions: Compound concentration 1000.0 nM
Serine/threonine-protein kinase PknB (Mycobacterium tuberculosis), sequence (P9WI81 whole entry): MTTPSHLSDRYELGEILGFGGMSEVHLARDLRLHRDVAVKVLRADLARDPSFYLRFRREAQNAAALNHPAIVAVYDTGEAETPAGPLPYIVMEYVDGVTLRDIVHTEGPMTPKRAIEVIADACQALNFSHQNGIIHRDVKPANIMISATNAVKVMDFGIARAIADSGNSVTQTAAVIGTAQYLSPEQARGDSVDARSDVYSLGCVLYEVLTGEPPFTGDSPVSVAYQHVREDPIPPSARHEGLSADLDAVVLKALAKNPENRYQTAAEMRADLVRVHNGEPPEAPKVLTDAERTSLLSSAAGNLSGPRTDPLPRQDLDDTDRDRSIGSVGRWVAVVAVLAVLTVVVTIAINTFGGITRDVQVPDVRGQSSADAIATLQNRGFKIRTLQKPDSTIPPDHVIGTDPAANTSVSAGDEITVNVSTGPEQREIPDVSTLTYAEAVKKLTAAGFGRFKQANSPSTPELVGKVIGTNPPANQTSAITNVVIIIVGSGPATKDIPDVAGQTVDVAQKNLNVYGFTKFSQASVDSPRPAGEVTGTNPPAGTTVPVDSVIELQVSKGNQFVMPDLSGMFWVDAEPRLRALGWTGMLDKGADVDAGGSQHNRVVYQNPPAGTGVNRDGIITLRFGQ

[24] = target: Protein kinase C delta type (Homo sapiens) (UniProt Q05655); conditions: Compound concentration 1000.0 nM
[25] = target: Receptor-interacting serine/threonine-protein kinase 4 (Homo sapiens) (UniProt P57078); conditions: Compound concentration 1000.0 nM
[26] = target: Tyrosine-protein kinase Tec (Homo sapiens) (UniProt P42680); conditions: Compound concentration 1000.0 nM
Tyrosine-protein kinase Tec (Homo sapiens), sequence (P42680 whole entry): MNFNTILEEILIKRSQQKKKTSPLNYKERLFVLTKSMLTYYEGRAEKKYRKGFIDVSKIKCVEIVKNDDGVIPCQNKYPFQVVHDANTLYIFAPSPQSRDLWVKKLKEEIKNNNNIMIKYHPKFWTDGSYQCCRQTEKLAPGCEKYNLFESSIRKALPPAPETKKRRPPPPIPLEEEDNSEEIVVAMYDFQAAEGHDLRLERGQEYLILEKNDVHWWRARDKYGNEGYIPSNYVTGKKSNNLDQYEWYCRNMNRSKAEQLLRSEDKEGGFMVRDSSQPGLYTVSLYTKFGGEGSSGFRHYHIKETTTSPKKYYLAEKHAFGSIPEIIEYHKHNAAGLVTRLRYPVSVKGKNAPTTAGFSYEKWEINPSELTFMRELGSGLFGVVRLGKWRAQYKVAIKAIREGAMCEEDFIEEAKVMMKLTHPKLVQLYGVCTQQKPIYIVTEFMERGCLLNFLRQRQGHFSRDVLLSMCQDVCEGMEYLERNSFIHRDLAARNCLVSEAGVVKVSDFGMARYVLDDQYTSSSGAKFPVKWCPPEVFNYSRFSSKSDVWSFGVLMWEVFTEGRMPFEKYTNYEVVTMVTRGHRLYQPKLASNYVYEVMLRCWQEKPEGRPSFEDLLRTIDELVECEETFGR

[27] = target: TRAF2 and NCK-interacting protein kinase (Homo sapiens) (UniProt Q9UKE5); conditions: Compound concentration 1000.0 nM
[28] = target: BDNF/NT-3 growth factors receptor (Homo sapiens) (UniProt Q16620); conditions: Compound concentration 1000.0 nM
[29] = target: Dual specificity protein kinase TTK (Homo sapiens) (UniProt P33981); conditions: Compound concentration 1000.0 nM
Dual specificity protein kinase TTK (Homo sapiens), sequence (P33981 whole entry): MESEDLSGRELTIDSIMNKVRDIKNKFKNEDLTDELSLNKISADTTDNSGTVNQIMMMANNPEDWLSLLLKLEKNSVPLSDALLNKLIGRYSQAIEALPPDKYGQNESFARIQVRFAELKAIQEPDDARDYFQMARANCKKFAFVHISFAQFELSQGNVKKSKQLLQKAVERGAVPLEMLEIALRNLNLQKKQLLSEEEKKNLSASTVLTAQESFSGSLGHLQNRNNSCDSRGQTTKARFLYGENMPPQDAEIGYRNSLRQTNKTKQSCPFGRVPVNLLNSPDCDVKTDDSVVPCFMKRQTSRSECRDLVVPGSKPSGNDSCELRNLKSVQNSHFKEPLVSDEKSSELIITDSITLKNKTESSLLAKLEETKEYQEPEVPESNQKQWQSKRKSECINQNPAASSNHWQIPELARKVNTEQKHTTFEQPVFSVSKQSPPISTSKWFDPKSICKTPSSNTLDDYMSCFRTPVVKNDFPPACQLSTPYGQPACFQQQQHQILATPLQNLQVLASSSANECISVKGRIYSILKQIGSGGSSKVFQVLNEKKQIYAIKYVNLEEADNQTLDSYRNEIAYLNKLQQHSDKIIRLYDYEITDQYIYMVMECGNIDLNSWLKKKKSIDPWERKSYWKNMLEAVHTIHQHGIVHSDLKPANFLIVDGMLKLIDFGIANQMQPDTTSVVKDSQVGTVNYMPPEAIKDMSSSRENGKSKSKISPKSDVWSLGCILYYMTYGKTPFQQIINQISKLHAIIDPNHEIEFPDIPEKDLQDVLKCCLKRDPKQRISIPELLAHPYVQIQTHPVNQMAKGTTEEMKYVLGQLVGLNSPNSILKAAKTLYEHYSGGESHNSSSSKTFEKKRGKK

[30] = target: Tyrosine-protein kinase Yes (Homo sapiens) (UniProt P07947); conditions: Compound concentration 1000.0 nM
Tyrosine-protein kinase Yes (Homo sapiens), sequence (P07947 2-543 limits assumed): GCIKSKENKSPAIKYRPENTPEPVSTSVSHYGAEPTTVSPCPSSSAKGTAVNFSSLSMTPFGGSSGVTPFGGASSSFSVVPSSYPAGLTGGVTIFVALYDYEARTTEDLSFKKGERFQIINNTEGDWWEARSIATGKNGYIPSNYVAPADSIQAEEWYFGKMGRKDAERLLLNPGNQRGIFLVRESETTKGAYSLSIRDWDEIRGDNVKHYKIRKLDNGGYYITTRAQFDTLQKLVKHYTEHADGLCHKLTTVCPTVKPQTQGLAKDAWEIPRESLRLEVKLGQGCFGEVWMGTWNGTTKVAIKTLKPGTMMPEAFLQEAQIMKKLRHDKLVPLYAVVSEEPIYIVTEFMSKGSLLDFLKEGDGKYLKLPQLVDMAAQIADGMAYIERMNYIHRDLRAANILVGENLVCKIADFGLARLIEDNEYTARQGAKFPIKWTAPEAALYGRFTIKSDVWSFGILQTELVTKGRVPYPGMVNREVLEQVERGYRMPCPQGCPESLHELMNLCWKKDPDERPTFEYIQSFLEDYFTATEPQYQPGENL

[31] = target: 5-hydroxytryptamine receptor 1D (Homo sapiens) (UniProt P28221); conditions: Compound concentration 10.0 uM
[32] = target: 5-hydroxytryptamine receptor 2A (Homo sapiens) (UniProt P28223); conditions: Compound concentration 10.0 uM
[33] = target: 5-hydroxytryptamine receptor 2B (Homo sapiens) (UniProt P41595); conditions: Compound concentration 10.0 uM
[34] = target: Muscarinic acetylcholine receptor M3 (Homo sapiens) (UniProt P20309); conditions: Compound concentration 10.0 uM
[35] = target: T1, Muscarinic acetylcholine receptor M5 (Homo sapiens) (UniProt P08912); conditions: Compound concentration 10.0 uM
T1 sequence (whole entry): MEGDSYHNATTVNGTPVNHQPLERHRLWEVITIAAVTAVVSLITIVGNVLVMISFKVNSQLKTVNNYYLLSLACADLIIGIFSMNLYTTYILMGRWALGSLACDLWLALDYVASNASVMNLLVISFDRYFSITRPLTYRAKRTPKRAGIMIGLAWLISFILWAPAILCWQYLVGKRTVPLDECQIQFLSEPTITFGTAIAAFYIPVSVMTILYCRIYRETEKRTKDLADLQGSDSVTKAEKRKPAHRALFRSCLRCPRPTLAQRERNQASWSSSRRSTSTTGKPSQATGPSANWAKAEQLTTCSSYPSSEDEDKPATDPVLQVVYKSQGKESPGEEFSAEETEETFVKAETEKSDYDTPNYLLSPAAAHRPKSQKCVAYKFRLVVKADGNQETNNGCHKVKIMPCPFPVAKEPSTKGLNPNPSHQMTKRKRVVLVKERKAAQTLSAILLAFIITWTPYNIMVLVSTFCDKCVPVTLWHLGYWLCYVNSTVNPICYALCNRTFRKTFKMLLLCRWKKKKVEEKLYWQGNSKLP

[36] = target: GABA-A receptor; anion channel (Rattus norvegicus) (UniProt O09028+P15431+P18506+P18508+P19969+P20236+P23574+P23576+P28471+P28473+P30191+P62813+P63079+P63138+Q91ZM7+Q9ES14); conditions: Compound concentration 10.0 uM

Histamine H2 receptor (Homo sapiens), sequence (P25021 whole entry): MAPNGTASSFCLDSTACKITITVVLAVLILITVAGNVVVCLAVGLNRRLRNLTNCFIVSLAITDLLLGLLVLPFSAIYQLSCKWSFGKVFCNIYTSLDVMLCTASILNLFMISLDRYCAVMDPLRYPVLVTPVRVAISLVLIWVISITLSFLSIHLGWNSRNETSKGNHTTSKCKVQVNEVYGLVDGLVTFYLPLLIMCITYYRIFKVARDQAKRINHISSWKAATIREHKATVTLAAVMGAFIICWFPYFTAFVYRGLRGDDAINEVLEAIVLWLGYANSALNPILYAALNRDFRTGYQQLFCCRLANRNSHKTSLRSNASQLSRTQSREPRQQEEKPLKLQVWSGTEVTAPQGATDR

## COc1ccc2c(c1)O[C@H](c1ccc(OC)c(OC)c1)C[C@@H]2NC(=O)C1(c2ccc3c(c2)OC(F)(F)O3)CC1 [A-1596584]
[1]
  % Inhibition of Control Specific Binding (Mean n=2): -14.1%
[2]
  % Inhibition of Control Specific Binding (Mean n=2): 4%
[3]
  residual activity: 100%
[4]
  residual activity: 88%
[5]
  residual activity: 100%
[6]
  residual activity: 98%
[7]
  residual activity: 100%
[8]
  residual activity: 100%
[9]
  residual activity: 100%
[10]
  residual activity: 100%
[11]
  residual activity: 100%
[12]
  residual activity: 100%
[13]
  residual activity: 100%
[14]
  residual activity: 100%
[15]
  residual activity: 98%
[16]
  residual activity: 100%
[17]
  residual activity: 98%
[18]
  residual activity: 84%
[19]
  residual activity: 84%
[20]
  residual activity: 100%
[21]
  residual activity: 87%
[22]
  residual activity: 93%
[23]
  residual activity: 88%
[24]
  residual activity: 100%
[25]
  residual activity: 75%
[26]
  residual activity: 100%
[27]
  residual activity: 100%
[28]
  residual activity: 100%
[29]
  residual activity: 100%
[30]
  residual activity: 97%
[31]
  inhibition: 6.1%
[32]
  inhibition: 7.46%
[33]
  inhibition: -0.83%
[34]
  inhibition: 2.35%
[35]
  inhibition: 16.1%
[36]
  inhibition: -8.42%

## COc1ccc2c(c1)O[C@@H](c1ccc(OC)c(OC)c1)C[C@H]2NC(=O)C1(c2ccc3c(c2)OC(F)(F)O3)CC1 [A-1596586]
[1]
  % Inhibition of Control Specific Binding (Mean n=2): -18.2%
[2]
  % Inhibition of Control Specific Binding (Mean n=2): -6.1%
[3]
  residual activity: 76%
[4]
  residual activity: 78%
[5]
  residual activity: 82%
[6]
  residual activity: 100%
[7]
  residual activity: 90%
[8]
  residual activity: 92%
[9]
  residual activity: 100%
[10]
  residual activity: 96%
[11]
  residual activity: 87%
[12]
  residual activity: 100%
[13]
  residual activity: 80%
[14]
  residual activity: 75%
[15]
  residual activity: 96%
[16]
  residual activity: 94%
[17]
  residual activity: 95%
[18]
  residual activity: 75%
[19]
  residual activity: 94%
[20]
  residual activity: 75%
[21]
  residual activity: 78%
[22]
  residual activity: 82%
[23]
  residual activity: 85%
[24]
  residual activity: 100%
[25]
  residual activity: 67%
[26]
  residual activity: 89%
[27]
  residual activity: 71%
[28]
  residual activity: 91%
[29]
  residual activity: 100%
[30]
  residual activity: 100%
[31]
  inhibition: 4.36%
[32]
  inhibition: 8.84%
[33]
  inhibition: 1.62%
[34]
  inhibition: 1.13%
[35]
  inhibition: 2.95%
[36]
  inhibition: 11.1%
